In ChEMBL document CHEMBL4765274, “The development of advanced structural framework as multi-target-directed ligands for the treatment of Alzheimer's disease” (Eur J Med Chem, 2020):
Calls of active or inactive are those of the source. The calls are words filed in the database; no cut-off is given here. Peptide text beside a SMILES is read from it. * marks the point of attachment. Cbz = O=C(OCc1ccccc1)*

Legend:
Acetylcholinesterase [1] = biological target: Acetylcholinesterase (Electrophorus electricus, UniProt O42275); test: Inhibition of electric eel AChE by Ellman's method
Acetylcholinesterase [2] = biological target: T1, Acetylcholinesterase (Homo sapiens, UniProt P22303); test: Inhibition of AChE in human erythrocytes by Ellman's method; type: cell-based, Erythrocyte
Cholinesterase [3] = biological target: T2, Cholinesterase (Homo sapiens, UniProt P06276); test: Inhibition of human serum BChE by Ellman's method; type: cell-free
Cholinesterase [4] = biological target: T2, Cholinesterase; test: Inhibition of human serum BChE by Ellman's method relative to control; type: cell-free; parameters: concentration or dose not given beside the values; conditions: concentration not given here
[5] = Antioxidant activity assessed as trolox equivalent of AAPH radical scavenging activity measured every min for 4 hrs by ORAC-FL assay relative to trolox; type: functional
Cholinesterase [6] = biological target: Cholinesterase (Equus caballus, UniProt P81908); test: Inhibition of equine serum BChE by Ellman's method; type: cell-free
[7] = Selectivity index, ratio of IC50 for inhibition of equine serum BChE to IC50 for inhibition of electric eel AChE
Homo sapiens = species: Homo sapiens; test: Inhibition of self-induced amyloid beta (1 to 42 residues) (unknown origin) aggregation at 25 uM by thioflavin T based fluorescence assay relative to control
[8] = Inhibition of Cu2+-induced amyloid beta (1 to 42 residues) (unknown origin) aggregation at 25 uM after 24 hrs by thioflavin-T fluorescence method relative to control
[9] = Disaggregation of Cu2+ induced amyloid beta (1 to 42 residues) (unknown origin) aggregation at 25 uM by thioflavin-T fluorescence method relative to control
[10] = biological target: Acetylcholinesterase (Electrophorus electricus) (UniProt O42275); test: Inhibition of electric eel AChE at 25 uM by Ellman's method relative to control
[11] = biological target: Cholinesterase (Equus caballus) (UniProt P81908); test: Inhibition of equine serum BChE at 25 uM by Ellman's method relative to control; type: cell-free
Acetylcholinesterase [12] = biological target: T1, Acetylcholinesterase; test: Inhibition of AChE in human erythrocytes at 25 uM by Ellman's method relative to control; type: cell-based; conditions: Erythrocyte
Cholinesterase [13] = biological target: T2, Cholinesterase; test: Inhibition of human serum BChE at 25 uM by Ellman's method relative to control; type: cell-free
[14] = Inhibition of self-induced amyloid beta (1 to 42 residues) (unknown origin) aggregation by thioflavin T based fluorescence assay; parameters: species or system Homo sapiens
PC-12 [15] = test: Cytotoxicity against rat PC-12 cells assessed as reduction in cell viability up to 100 uM after 48 hrs by MTT assay; type: cell-based; conditions: pc-12, 48 h
PC-12 [16] = test: Neuroprotective activity against H2O2-induced cytotoxicity in rat PC-12 cells assessed as increase in cell viability preincubated for 2 hrs followed by H2O2 addition and measured after 24 hrs by MTT assay; type: functional, cell-based; conditions: dose 1-10 µM, time 26.0 hrs
PC-12 [17] = test: Neuroprotective activity against H2O2-induced cytotoxicity in rat PC-12 cells assessed as decrease in LDH activity at 1 to 10 uM preincubated for 2 hrs followed by H2O2 addition and measured after 24 hrs by LDH assay; type: functional, cell-based; conditions: dose 1-10 µM, time 26.0 hrs
SH-SY5Y [18] = test: Cytotoxicity against human SH-SY5Y cells assessed as cell viability up to 100 uM after 48 hrs by MTT assay relative to control; type: cell-based
SH-SY5Y [19] = test: Neuroprotective activity against amyloid beta (1 to 42 residues)-induced cytotoxicity in human SH-SY5Y cells assessed as increase in cell viability at 1 to 10 uM incubated for 48 hrs by MTT assay; type: functional, cell-based; conditions: dose 1-10 µM
[20] = Cytotoxicity against rat PC-12 cells assessed as cell viability at 100 uM after 48 hrs by MTT assay relative to control; type: cell-based; conditions: read-out: Activity
Danio rerio = species: Danio rerio; test: Antialzheimer activity in Alcl3-induced zebra fish AD model assessed as increase in motility at 8 uM relative to control; type: functional
Mus musculus = test: Antialzheimer activity in scopolamine-induced Kunming mouse model of memory impairment assessed as latency time at 5 mg/kg , po by step-down passive avoidance test (reference value: 125.65 sec); type: functional
[21] = Effective permeability of compound at 100 ug/m by PAMPA-BBB assay; type: ADME; conditions: read-out: Peff
HT-22 [22] = test: Inhibition of ubiquitin-proteasome system in mouse HT-22 cells expressing YFP-CLI assessed as increase in GFP level at 0.5 uM after 24 hrs by flow cytometric analysis; type: cell-based
HT-22 [23] = test: Inhibition of ubiquitin-proteasome system in mouse HT-22 cells expressing YFP-CLI assessed as increase in GFP level at 0.5 uM after 24 hrs by fluorescence microscopic method; type: cell-based

Chain of Acetylcholinesterase (Electrophorus electricus) (O42275 24-633 limits assumed): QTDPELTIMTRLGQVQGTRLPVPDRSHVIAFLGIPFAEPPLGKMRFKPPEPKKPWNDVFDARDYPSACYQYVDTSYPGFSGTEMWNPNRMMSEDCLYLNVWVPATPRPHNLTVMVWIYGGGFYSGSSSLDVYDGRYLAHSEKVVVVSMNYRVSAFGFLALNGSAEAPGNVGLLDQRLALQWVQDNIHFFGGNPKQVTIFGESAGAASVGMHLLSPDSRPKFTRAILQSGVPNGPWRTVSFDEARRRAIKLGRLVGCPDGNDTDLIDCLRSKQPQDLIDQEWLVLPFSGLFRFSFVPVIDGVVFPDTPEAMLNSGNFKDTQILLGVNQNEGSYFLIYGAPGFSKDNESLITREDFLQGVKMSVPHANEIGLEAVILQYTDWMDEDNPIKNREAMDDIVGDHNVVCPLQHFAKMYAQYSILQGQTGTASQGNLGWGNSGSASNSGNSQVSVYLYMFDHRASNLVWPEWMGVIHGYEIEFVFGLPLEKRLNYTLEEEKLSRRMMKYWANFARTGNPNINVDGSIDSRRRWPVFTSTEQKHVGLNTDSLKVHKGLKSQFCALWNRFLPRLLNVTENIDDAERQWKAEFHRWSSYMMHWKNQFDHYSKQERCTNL
Chain of Cholinesterase (Equus caballus, UniProt P81908) (P81908 whole entry): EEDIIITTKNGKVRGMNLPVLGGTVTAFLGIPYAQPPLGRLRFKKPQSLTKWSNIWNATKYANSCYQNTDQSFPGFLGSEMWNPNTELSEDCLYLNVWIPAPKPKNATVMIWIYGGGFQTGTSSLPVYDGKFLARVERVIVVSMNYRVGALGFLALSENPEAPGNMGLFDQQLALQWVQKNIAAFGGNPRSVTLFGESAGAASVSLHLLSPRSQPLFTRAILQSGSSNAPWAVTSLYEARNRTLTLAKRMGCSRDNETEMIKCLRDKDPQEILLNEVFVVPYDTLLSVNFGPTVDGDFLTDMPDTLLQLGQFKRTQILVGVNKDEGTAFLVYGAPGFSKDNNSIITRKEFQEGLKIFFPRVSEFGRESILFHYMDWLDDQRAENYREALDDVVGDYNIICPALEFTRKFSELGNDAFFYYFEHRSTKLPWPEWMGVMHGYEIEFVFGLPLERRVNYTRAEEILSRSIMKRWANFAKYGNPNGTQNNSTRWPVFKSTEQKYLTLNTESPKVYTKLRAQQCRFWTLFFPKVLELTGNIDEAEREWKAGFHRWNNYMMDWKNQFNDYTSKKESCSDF
Chain of Cholinesterase (Equus caballus) (P81908 whole entry): as above
T1 sequence (P22303 whole entry): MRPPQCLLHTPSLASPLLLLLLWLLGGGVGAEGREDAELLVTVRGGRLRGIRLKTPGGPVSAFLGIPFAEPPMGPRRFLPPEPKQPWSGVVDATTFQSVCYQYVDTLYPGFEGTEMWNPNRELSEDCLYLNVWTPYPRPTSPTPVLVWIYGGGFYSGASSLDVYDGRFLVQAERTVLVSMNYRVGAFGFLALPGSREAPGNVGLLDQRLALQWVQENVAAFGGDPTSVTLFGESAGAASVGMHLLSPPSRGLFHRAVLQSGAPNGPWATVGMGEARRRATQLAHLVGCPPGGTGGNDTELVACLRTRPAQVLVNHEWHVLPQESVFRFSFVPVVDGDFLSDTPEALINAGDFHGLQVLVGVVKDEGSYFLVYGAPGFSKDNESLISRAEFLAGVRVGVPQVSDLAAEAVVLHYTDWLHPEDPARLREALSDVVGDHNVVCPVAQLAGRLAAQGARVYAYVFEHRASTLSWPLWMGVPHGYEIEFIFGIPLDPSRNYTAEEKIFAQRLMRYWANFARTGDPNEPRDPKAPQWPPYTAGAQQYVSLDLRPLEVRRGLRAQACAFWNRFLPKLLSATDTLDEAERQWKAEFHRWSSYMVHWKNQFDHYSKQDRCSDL
T2 sequence (P06276 whole entry): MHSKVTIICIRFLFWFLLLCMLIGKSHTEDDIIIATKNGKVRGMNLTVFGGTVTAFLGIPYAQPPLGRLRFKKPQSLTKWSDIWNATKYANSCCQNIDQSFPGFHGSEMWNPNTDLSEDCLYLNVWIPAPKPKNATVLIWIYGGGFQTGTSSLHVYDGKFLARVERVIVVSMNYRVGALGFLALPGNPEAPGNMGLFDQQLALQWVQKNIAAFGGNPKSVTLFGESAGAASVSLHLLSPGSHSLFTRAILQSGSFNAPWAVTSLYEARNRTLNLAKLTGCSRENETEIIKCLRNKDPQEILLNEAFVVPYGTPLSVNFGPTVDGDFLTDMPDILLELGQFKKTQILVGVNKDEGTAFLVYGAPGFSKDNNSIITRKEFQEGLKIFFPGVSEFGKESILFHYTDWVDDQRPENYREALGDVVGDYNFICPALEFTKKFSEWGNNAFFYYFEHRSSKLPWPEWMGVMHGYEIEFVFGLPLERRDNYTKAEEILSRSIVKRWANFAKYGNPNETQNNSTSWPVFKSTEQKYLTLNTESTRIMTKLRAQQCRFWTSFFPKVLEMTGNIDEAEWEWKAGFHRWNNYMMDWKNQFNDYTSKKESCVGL
Chain of Acetylcholinesterase (Electrophorus electricus, UniProt O42275) (O42275 whole entry): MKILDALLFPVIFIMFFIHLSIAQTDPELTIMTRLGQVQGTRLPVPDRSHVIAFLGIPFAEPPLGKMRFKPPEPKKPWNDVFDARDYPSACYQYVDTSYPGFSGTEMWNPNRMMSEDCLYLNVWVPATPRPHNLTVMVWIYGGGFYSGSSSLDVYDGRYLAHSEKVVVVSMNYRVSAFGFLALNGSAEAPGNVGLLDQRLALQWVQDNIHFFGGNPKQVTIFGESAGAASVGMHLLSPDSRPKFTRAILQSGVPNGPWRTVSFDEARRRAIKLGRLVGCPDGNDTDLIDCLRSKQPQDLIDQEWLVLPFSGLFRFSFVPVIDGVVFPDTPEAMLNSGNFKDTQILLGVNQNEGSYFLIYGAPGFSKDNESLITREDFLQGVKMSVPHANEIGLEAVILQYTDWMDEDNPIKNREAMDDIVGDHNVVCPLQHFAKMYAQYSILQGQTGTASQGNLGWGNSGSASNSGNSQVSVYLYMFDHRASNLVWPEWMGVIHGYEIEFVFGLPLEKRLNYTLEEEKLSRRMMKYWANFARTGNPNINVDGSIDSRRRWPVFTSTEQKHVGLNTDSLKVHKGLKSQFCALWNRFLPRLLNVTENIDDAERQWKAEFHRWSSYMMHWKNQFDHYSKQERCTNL

Structure (SMILES) | IC50 (Acetylcholinesterase [1]) | IC50 (Acetylcholinesterase [2]) | IC50 (Cholinesterase [3]) | fold change (FC) [5] | IC50 (Cholinesterase [6]) | Ratio IC50 [7] | also measured
O=C1CC(c2ccc(OCCCCN3CCN(Cc4ccccc4)CC3)cc2)Oc2cc(OCCCCN3CCN(Cc4ccccc4)CC3)cc(O)c21 (stereo not drawn) | 11.6 µM | 18.7 µM | 21.4 µM | 1.7 | – | – | inhibition (Cholinesterase [4]): 12.2%
O=C(/C=C/c1ccc(OCCCCN2CCCC2)cc1)c1c(O)cc(OCCCCN2CCCC2)cc1O | 5.71 µM | 3.2 µM | 1.8 µM | 0.93 | 8.19 µM | 1.4 | –
O=c1cc(-c2ccc(OCCCCN3CCc4ccccc4C3)cc2)oc2cc(OCCCCN3CCc4ccccc4C3)cc(O)c12 | 18.2 µM | 0.59 µM | 15.8 µM | 1.3 | 17.5 µM | 0.96 | –
O=C1CC(c2ccc(OCCCCN3CCc4ccccc4C3)cc2)Oc2cc(OCCCCN3CCc4ccccc4C3)cc(O)c21 (stereo not drawn) | 16.8 µM | 13.2 µM | 20.1 µM | 1.2 | – | – | inhibition (Cholinesterase [4]): 8.8%
COc1cc(/C=C/C(=O)CC(=O)/C=C/c2ccc(O)c(OC)c2)ccc1O | – | – | – | – | – | – | inhibition (Homo sapiens): 43.7%; inhibition [8]: 53.6%; Activity [9]: 56.1%
O=c1cc(-c2ccc(OCCCCN3CCN(Cc4ccccc4)CC3)cc2)oc2cc(OCCCCN3CCN(Cc4ccccc4)CC3)cc(O)c12 | 26.8 µM | 1 µM | 10.7 µM | 1.8 | 37.5 µM | 1.4 | –
O=C(C=Cc1ccccc1)c1ccccc1 | – | – | – | 2.6 | – | – | inhibition [10]: < 5%; inhibition [11]: < 5%; inhibition (Acetylcholinesterase [12]): < 5%; inhibition (Cholinesterase [13]): < 5%
CCN(CCCCOc1ccc(C2CC(=O)c3c(O)cc(OCCCCN(CC)Cc4ccccc4OC)cc3O2)cc1)Cc1ccccc1OC (stereo not drawn) | 5.3 µM | 4.3 µM | 15.6 µM | 1.3 | 21.9 µM | 4.1 | IC50 ([14]; read-out: IC50): 30.9 µM; Activity (PC-12 [15]): Non-Toxic; Activity (PC-12 [16]): Dose-dependent effect; Activity (PC-12 [17]): Active; Activity (SH-SY5Y [18]): Non-Toxic; Activity (SH-SY5Y [19]): Active
CCN(CC)CCCCOc1ccc(/C=C/C(=O)c2c(O)cc(OCCCCN(CC)CC)cc2O)cc1 | 6.24 µM | 4.7 µM | 8.3 µM | 0.9 | 30.8 µM | 4.9 | –
O=c1c(-c2ccc(OCCCCN3CCc4ccccc4C3)cc2)coc2cc(OCCCCN3CCc4ccccc4C3)cc(O)c12 | 13.5 µM | 8.1 µM | 13.7 µM | 1.1 | 52.6 µM | 3.9 | –
O=c1c(-c2ccc(OCCCCN3CCC(Cc4ccccc4)CC3)cc2)coc2cc(OCCCCN3CCC(Cc4ccccc4)CC3)cc(O)c12 | 7.2 µM | 7.3 µM | 11.9 µM | 1.2 | 31.8 µM | 4.4 | –
CCN(CCCCOc1ccc(/C=C/C(=O)c2c(O)cc(OCCCCN(CC)Cc3ccccc3OC)cc2O)cc1)Cc1ccccc1OC | 1.16 µM | 1.3 µM | 5.2 µM | 1.3 | 15.6 µM | 13.4 | IC50 ([14]; read-out: IC50): 3.7 µM; viability at 48 h, 100 µM [20]: 55.6%; Activity (PC-12 [17]): Active; Activity (SH-SY5Y [18]): Toxic; Activity (SH-SY5Y [19]): Active
O=C(/C=C/c1ccc(OCCCCN2CCC(Cc3ccccc3)CC2)cc1)c1c(O)cc(OCCCCN2CCC(Cc3ccccc3)CC2)cc1O | 16.3 µM | 11.9 µM | 9.4 µM | 1.1 | 46.1 µM | 2.8 | –
COc1cc2c(cc1OC)C(=O)C(CC1CCN(Cc3ccccc3)CC1)C2 (stereo not drawn) [DONEPEZIL] | – | – | – | – | – | – | IC50 [14]: Not Active; inhibition [8]: inactive; Activity (Danio rerio): 55%; Time (Mus musculus): 251.42 s
O=C1CC(c2ccc(OCCCCN3CCC(Cc4ccccc4)CC3)cc2)Oc2cc(OCCCCN3CCC(Cc4ccccc4)CC3)cc(O)c21 (stereo not drawn) | 8.1 µM | 7.6 µM | 18.7 µM | 0.98 | 7.5 µM | 0.93 | –
O=c1c(-c2ccc(O)cc2)coc2cc(O)cc(O)c12 | – | – | – | 5.1 | – | – | inhibition [11]: < 5%; inhibition (Cholinesterase [13]): < 5%
O=c1c(-c2ccc(OCCCCN3CCCCC3)cc2)coc2cc(OCCCCN3CCCCC3)cc(O)c12 | 0.52 µM | 0.81 µM | 19.6 µM | 1.2 | 2.2 µM | 4.2 | IC50 ([14]; read-out: IC50): 19.6 µM; Activity (PC-12 [15]): Non-Toxic; Activity (PC-12 [16]): Dose-dependent effect; Activity (PC-12 [17]): Active; Activity (SH-SY5Y [18]): Non-Toxic; Activity (SH-SY5Y [19]): Active
CC1c2ccccc2CCN1CCCCOc1ccc(-c2coc3cc(OCCCCN4CCc5ccccc5C4C)cc(O)c3c2=O)cc1 (stereo not drawn) | 1.8 µM | 5.3 µM | 12.4 µM | 1.3 | – | – | inhibition (Cholinesterase [4]): 19%
O=c1cc(-c2ccc(O)cc2)oc2cc(O)cc(O)c12 [APIGENIN] | – | – | – | 6.1 | – | – | inhibition [10]: < 5%; inhibition [11]: < 5%; inhibition (Acetylcholinesterase [12]): < 5%; inhibition (Cholinesterase [13]): < 5%; Papp at 100 ug/m [21]: 15.7 ×10⁻⁶ cm/s
O=c1c(-c2ccc(OCCCCN3CCN(Cc4ccccc4)CC3)cc2)coc2cc(OCCCCN3CCN(Cc4ccccc4)CC3)cc(O)c12 | 19.8 µM | 25.1 µM | 26.4 µM | 1.8 | – | – | inhibition (Cholinesterase [4]): 5.8%
CCN(CCCCOc1ccc(-c2coc3cc(OCCCCN(CC)Cc4ccccc4)cc(O)c3c2=O)cc1)Cc1ccccc1 | 2.3 µM | 2.1 µM | 18.2 µM | 1.4 | – | – | inhibition (Cholinesterase [4]): 12%
O=C1C[C@@H](c2ccc(O)cc2)Oc2cc(O)cc(O)c21 | – | – | – | 5.5 | – | – | inhibition [10]: < 5%; inhibition [11]: < 5%; inhibition (Acetylcholinesterase [12]): < 5%; inhibition (Cholinesterase [13]): < 5%
CC(C)C[C@@H](C=O)NC(=O)[C@H](CC(C)C)NC(=O)[C@H](CC(C)C)NC(=O)OCc1ccccc1 (Cbz-Leu-Leu-Leu-aldehyde) | – | – | – | – | – | – | inhibition (HT-22 [22]): Active; inhibition (HT-22 [23]): Active
O=c1cc(-c2ccc(OCCCCN3CCC(Cc4ccccc4)CC3)cc2)oc2cc(OCCCCN3CCC(Cc4ccccc4)CC3)cc(O)c12 | 10.8 µM | 0.67 µM | 12.9 µM | 1.1 | 19.7 µM | 1.8 | –
O=C(/C=C/c1ccc(OCCCCN2CCCCC2)cc1)c1c(O)cc(OCCCCN2CCCCC2)cc1O | 3.52 µM | 5.1 µM | 3.7 µM | 1.1 | 7.2 µM | 2 | –
